The source made the active and inactive calls.
Tests used:
[1] = target: Lysine-specific demethylase 4C (Homo sapiens, UniProt Q9H3R0); assay: GASC-1 (JMJD2C) histone demethylase inhibitors, dose response, biochemical, DELFIA europium, cherry-picked samples (AID 488835); assay type: functional
[2] = target: Protein disulfide-isomerase A6 (Homo sapiens, UniProt Q15084); assay: inhibitors of ERp5-mediated insulin aggregation, dose response, biochemical, turbidity, absorbance 650 nm, cherry-picked samples (AID 720566)
[3] = LGR2 antagonists, dose response, cell-based, HEK293, CRE-luciferase reporter, cherry pick, set 2 (AID 743343); assay type: functional;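 also: transfected cells were stimulated with diluted bursicon conditioned medium after compound addition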
[4] = Shn3 3'UTR reporter inhibitors, dose response, cell-based, Clone20 osteoblasts, firefly luciferase, cherry-picked (AID 624132); assay type: functional;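 also: firefly luciferase luminescence from reporter carrying the Shn3 3'UTR in osteoblasts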
[5] = target: Tyrosyl-DNA phosphodiesterase 2 (Homo sapiens, UniProt O95551); assay: human TDP2 enzyme inhibitors, dose response, biochemical, epi absorbance, IC50 (AID 743297)
Protein RecA = target: T1, Protein RecA (Mycobacterium tuberculosis, UniProt P9WHJ3); assay: GFP-RecA MOA-DTT Measured in Biochemical System Using Plate Reader - 2047-05_Inhibitor_Dose_DryPowder_Activity. [Related pubchem assays (depositor defined):AID2223]; parameters: species or system Mycobacterium tuberculosis H37Rv
T1 sequence (P9WHJ3 whole entry): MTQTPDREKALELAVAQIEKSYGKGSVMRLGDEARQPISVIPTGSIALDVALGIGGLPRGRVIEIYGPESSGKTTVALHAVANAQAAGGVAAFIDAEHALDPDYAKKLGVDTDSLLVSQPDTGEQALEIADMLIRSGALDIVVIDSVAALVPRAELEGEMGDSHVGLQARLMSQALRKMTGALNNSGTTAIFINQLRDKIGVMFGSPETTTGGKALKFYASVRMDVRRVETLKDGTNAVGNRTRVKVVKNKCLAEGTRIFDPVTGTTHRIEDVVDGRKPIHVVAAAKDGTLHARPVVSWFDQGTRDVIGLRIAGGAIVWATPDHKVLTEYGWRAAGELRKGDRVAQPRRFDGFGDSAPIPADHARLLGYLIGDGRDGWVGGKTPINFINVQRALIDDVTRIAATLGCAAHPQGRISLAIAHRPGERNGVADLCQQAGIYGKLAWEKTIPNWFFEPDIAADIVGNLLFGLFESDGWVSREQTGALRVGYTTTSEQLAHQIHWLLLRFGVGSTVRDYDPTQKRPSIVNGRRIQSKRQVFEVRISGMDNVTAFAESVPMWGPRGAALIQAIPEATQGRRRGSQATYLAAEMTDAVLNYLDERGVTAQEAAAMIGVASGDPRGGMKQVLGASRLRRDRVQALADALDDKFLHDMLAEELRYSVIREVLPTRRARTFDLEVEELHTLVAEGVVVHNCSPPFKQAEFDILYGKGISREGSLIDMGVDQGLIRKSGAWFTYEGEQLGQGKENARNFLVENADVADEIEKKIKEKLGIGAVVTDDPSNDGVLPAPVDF

[6] = target: T2, Serine/threonine-protein phosphatase (Candida dubliniensis (strain CD36 / CBS 7987 / NCPF 3949 / NRRLY-17841) (Yeast), UniProt B9W6M3); assay: calcineurin pathway inhibitors in yeast reporter, dose response, S. cerevisiae, CDRE-lacZ, luminescence, secondary (AID 2388); assay type: functional, cell-based;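 also: yeast reporter cells carrying a calcineurin-responsive lacZ construct stimulated with calcium chloride; luminescent beta-galactosidase reporter signal in whole cells rather than isolated phosphatase activity; potency for inhibition where a drop in reporter signal means calcineurin blockade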
T2 sequence (B9W6M3 whole entry): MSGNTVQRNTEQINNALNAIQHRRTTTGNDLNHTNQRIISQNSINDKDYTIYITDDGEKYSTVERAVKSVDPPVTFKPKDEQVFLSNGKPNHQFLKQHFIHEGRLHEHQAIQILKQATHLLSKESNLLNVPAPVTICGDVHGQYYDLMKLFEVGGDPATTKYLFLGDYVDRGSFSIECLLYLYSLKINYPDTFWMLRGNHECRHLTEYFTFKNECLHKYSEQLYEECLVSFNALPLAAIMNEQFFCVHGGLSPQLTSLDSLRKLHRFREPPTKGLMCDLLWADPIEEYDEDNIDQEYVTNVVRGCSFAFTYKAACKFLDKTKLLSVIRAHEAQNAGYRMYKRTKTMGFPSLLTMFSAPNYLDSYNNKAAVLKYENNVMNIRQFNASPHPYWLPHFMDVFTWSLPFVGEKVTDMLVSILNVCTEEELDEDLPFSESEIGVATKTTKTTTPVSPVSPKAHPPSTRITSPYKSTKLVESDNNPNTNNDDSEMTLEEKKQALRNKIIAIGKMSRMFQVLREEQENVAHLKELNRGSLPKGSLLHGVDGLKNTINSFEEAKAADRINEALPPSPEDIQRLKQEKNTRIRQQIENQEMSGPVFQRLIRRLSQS

[7] = Counterscreen for AddAB inhibitors: absorbance-based bacterial cell-based high throughput dose response assay for inhibitors of bacterial viability. [Related pubchem assays (depositor defined):AID435030, AID449728, AID449731, AID488942, AID488955, AID488956]; assay type: functional
BJ [8] = assay: cytotoxicity toward BJ-TERT fibroblasts, dose response, cell-based, RAS-independent, luminescence (AID 1933); assay type: functional; settings: Homo sapiens
Streptokinase A = target: T3, Streptokinase A (Streptococcus pyogenes serotype M1, UniProt P10520); assay: S. pyogenes streptokinase expression inhibitors, potency, dose response, plasminogen activation absorbance, OD405 (AID 1914); assay type: functional, Streptococcus pyogenes M1 GAS;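 also: secreted streptokinase activity via plasminogen activation per viability signal from cell pellet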
T3 sequence (P10520 whole entry): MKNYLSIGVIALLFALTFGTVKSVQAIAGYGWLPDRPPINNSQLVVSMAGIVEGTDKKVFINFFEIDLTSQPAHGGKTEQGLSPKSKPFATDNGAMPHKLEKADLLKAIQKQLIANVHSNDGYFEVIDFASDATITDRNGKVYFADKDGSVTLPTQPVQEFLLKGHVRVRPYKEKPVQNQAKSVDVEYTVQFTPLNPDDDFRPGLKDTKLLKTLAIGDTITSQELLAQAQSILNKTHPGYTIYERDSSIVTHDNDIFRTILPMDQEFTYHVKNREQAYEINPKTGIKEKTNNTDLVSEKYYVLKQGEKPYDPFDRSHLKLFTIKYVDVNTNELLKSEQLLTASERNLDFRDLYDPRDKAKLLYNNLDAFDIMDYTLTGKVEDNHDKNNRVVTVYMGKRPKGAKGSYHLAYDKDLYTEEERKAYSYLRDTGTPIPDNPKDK

[9] = HEK293T cytotoxicity, dose response, cytotoxicity control for miR-122 modulator project, cell-based, inhibitor set, cherry-pick, set 2 (AID 720697); assay type: functional
BJ [10] = assay: cytotoxicity toward Ras-transformed BJeLR fibroblasts, dose response, cell-based, alamar blue fluorescence, cherrypicked samples (AID 2631); assay type: functional; settings: Homo sapiens;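 also: confirmatory dose-response assay in RAS-dependent BJ fibroblasts engineered with TERT, LT and ST, with cytotoxicity read by fluorescence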
[11] = cytotoxicity toward DRD oncogenic fibroblasts, dose response, cell-based, non-viral oncogenic, luminescence (AID 1934); assay type: functional; settings: Homo sapiens
[12] = off-target signal loss in HeLa-CEM21 co-culture – HeLa F-luc CTL cells, cherry-picked, counter-screen for HIV-1 Env fusion inhibitor project, dose response (AID 652040); assay type: functional, cell-based;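 also: potency for signal decrease marking cytotoxic or nonspecific inhibition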

Sequence of Tyrosyl-DNA phosphodiesterase 2 (O95551 whole entry): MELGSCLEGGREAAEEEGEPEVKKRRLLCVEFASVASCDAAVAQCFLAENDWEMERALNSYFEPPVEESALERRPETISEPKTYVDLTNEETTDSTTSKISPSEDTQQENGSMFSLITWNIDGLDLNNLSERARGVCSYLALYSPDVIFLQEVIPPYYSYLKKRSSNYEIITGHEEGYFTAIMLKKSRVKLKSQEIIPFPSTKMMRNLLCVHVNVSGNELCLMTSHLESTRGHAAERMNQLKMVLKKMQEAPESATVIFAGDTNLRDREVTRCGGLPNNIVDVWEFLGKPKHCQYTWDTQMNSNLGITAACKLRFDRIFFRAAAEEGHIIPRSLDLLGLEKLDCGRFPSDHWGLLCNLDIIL
Sequence of Protein disulfide-isomerase A6 (Q15084 whole entry): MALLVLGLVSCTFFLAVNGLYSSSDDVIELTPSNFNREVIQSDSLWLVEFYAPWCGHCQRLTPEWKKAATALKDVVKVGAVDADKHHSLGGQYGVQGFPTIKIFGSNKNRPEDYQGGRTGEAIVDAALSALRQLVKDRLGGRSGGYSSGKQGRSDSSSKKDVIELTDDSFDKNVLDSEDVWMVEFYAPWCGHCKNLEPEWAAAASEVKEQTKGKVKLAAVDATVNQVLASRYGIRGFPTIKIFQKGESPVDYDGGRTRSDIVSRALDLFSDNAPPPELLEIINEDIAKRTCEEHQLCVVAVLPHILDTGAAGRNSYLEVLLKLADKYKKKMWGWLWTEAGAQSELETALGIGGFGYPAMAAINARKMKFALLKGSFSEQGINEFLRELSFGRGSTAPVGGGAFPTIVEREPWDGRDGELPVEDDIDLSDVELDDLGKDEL
Sequence of Lysine-specific demethylase 4C (Q9H3R0 whole entry): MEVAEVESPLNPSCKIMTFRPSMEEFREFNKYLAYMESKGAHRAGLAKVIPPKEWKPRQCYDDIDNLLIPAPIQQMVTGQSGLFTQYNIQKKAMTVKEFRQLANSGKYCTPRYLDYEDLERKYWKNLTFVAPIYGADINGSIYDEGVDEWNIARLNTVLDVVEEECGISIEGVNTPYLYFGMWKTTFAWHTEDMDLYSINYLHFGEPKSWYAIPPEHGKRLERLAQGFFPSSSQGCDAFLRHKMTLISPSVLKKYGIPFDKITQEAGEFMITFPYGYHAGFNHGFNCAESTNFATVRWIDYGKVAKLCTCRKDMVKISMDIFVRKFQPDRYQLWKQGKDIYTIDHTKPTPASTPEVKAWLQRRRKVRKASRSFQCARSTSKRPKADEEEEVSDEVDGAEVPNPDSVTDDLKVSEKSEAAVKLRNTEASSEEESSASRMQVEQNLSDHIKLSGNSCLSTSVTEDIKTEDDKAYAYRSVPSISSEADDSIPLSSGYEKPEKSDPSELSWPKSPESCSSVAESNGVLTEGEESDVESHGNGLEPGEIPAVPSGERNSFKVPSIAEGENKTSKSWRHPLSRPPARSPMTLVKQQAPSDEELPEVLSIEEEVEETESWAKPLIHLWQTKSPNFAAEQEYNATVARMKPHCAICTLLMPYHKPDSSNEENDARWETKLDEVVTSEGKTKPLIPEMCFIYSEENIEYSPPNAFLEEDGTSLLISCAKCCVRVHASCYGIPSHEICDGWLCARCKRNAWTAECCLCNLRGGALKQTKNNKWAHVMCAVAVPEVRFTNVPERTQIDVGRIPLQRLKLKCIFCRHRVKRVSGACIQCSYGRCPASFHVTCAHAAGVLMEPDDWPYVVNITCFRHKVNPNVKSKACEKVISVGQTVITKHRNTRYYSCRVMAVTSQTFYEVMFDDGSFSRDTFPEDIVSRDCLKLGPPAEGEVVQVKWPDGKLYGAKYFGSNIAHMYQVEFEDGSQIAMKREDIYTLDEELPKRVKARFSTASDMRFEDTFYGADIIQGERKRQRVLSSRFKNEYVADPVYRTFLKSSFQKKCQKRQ

Compound: Cn1nc(-c2ccccn2)nc2c(=O)n(C)c(=O)nc1-2
- AC50 [1]: 873 nM (active)
- AC50 [2]: 1490 nM (active)
- AC50 [3]: 2570 nM (active)
- AC50 [4]: 493 nM (active)
- IC50 [5]: 210 nM (active)
- AC50 (Protein RecA): 143 nM (active)

Compound: CCC(=O)NC(c1ccc(OC)cc1)c1cc(Cl)c2cccnc2c1O (centres undefined)
- EC50 [6]: > 180000 nM (inactive)
- IC50 [7]: > 119000 nM (inactive)

Compound: CCCCCCCCCCn1c2c(c(=N)c3c1CCC3)CCC2
- EC50 (BJ [8]): 3260 nM (inconclusive)
- EC50 (Streptokinase A): 4860 nM (active)
- AC50 [9]: 1800 nM (active)
- EC50 (BJ [10]): 706 nM (active)
- EC50 [11]: 3440 nM (inconclusive)
- AC50 [12]: 424 nM (active)
